# According to ChEMBL document CHEMBL4364319 (Eur J Med Chem, 2019):
# The source made the active and inactive calls. No cut-off for these calls is given here.
# Columns and labels:
# [1] = biological target: Dipeptidyl peptidase 9 (Homo sapiens, UniProt Q86TI2); experiment: Inhibition of DPP9 (unknown origin) using Gly-Pro-AMC as substrate preincubated for 15 mins followed by substrate addition measured at 60 secs interval for 20 mins by fluorometic method
# [2] = biological target: Dipeptidyl peptidase 8 (Homo sapiens, UniProt Q6V1X1); experiment: Inhibition of DPP8 (unknown origin) using Gly-Pro-AMC as substrate preincubated for 15 mins followed by substrate addition measured at 60 secs interval for 20 mins by fluorometic method
# [3] = Stability in Sprague-Dawley rat plasma assessed as compound remaining at 1 uM measured up to 120 mins by LC-MS/MS analysis relative to control; assay type: ADME, cell-free; conditions: read-out: Stability
# [4] = Stability in Sprague-Dawley rat plasma assessed as drug degradation at 1 uM after 5 mins by LC-MS/MS analysis relative to control relative to control; assay type: ADME, cell-free; conditions: read-out: Drug degradation
# [5] = Stability in PBS at pH 7.4 assessed as compound remaining at 1 uM after 120 mins by LC-MS/MS analysis relative to control; assay type: physicochemical; conditions: read-out: Stability
# [6] = Stability in Sprague-Dawley rat plasma assessed as drug degradation at 1 uM after 120 mins by LC-MS/MS analysis relative to control relative to control; assay type: ADME, cell-free; conditions: read-out: Drug degradation
# [7] = Drug degradation in PBS at pH 7.4 at 1 uM after 120 mins by LC-MS/MS analysis relative to control; assay type: physicochemical; conditions: read-out: Drug degradation
# [8] = Cmax in Sprague-Dawley rat at 10 mg/kg, po via gavage after 48 hrs by LC-MS/MS analysis; assay type: ADME, organism-based; parameters: dose 10 mg/kg, route oral; conditions: in vivo
# [9] = Clearance in Sprague-Dawley rat assessed as (R)-2-((8-(3-aminopiperidin-1-yl)-7-(but-2-yn-1-yl)-3-methyl-2,6-dioxo-2,3,6,7-tetrahydro-1H-purin-1-yl)methyl)-5-chlorobenzoic acid level at 10 mg/kg, po via gavage after 48 hrs by LC-MS/MS analysis; assay type: ADME, organism-based; conditions: in vivo
# [10] = Cytotoxicity against human LO2 cells assessed as cell viability at 20 uM after 48 hrs by MTT assay; assay type: cell-based, L02; conditions: read-out: Activity
# [11] = system: Rattus norvegicus; experiment: Anti-diabetic activity in Sprague-Dawley rat assessed as redcution in DPP4 inhibition in plasma at 10 mg/kg, po via gavage administered as single dose measured up to 12 hrs post dose by fluorometric assay relative to control; conditions: read-out: INH
# [12] = AUC (0 to infinity) in Sprague-Dawley rat at 10 mg/kg, po via gavage after 48 hrs by LC-MS/MS analysis; assay type: ADME, organism-based; parameters: dose 10 mg/kg, route oral, time infinity; conditions: in vivo
# [13] = system: Rattus norvegicus; experiment: Anti-diabetic activity in Sprague-Dawley rat assessed as redcution in DPP4 inhibition in plasma at 10 mg/kg, po via gavage administered as single dose measured after 12 hrs post dose by fluorometric assay; assay type: functional, organism-based
# [14] = Half life in Sprague-Dawley rat at 10 mg/kg, po via gavage after 48 hrs by LC-MS/MS analysis; assay type: ADME, organism-based; conditions: in vivo
# [15] = Tmax in Sprague-Dawley rat assessed as (R)-2-((8-(3-aminopiperidin-1-yl)-7-(but-2-yn-1-yl)-3-methyl-2,6-dioxo-2,3,6,7-tetrahydro-1H-purin-1-yl)methyl)-5-chlorobenzoic acid level at 10 mg/kg, po via gavage after 48 hrs by LC-MS/MS analysis; assay type: ADME, organism-based; conditions: in vivo
# [16] = Oral bioavailability in Sprague-Dawley rat assessed as (R)-2-((8-(3-aminopiperidin-1-yl)-7-(but-2-yn-1-yl)-3-methyl-2,6-dioxo-2,3,6,7-tetrahydro-1H-purin-1-yl)methyl)-5-chlorobenzoic acid level at 10 mg/kg via gavage after 48 hrs by LC-MS/MS analysis; assay type: ADME, organism-based; conditions: in vivo
# [17] = Cmax in Sprague-Dawley rat assessed as (R)-2-((8-(3-aminopiperidin-1-yl)-7-(but-2-yn-1-yl)-3-methyl-2,6-dioxo-2,3,6,7-tetrahydro-1H-purin-1-yl)methyl)-5-chlorobenzoic acid level at 10 mg/kg, po via gavage after 48 hrs by LC-MS/MS analysis; assay type: ADME, organism-based; parameters: dose 10 mg/kg, route oral; conditions: in vivo
# [18] = AUC (0 to infinity) in Sprague-Dawley rat assessed as (R)-2-((8-(3-aminopiperidin-1-yl)-7-(but-2-yn-1-yl)-3-methyl-2,6-dioxo-2,3,6,7-tetrahydro-1H-purin-1-yl)methyl)-5-chlorobenzoic acid level at 10 mg/kg, po via gavage after 48 hrs by LC-MS/MS analysis; assay type: ADME, organism-based; parameters: dose 10 mg/kg, route oral, time infinity; conditions: in vivo
# [19] = Tmax in Sprague-Dawley rat at 10 mg/kg, po via gavage after 48 hrs by LC-MS/MS analysis; assay type: ADME, organism-based; conditions: in vivo
# [20] = Half life in Sprague-Dawley rat assessed as (R)-2-((8-(3-aminopiperidin-1-yl)-7-(but-2-yn-1-yl)-3-methyl-2,6-dioxo-2,3,6,7-tetrahydro-1H-purin-1-yl)methyl)-5-chlorobenzoic acid level at 10 mg/kg, po via gavage after 48 hrs by LC-MS/MS analysis; assay type: ADME, organism-based; conditions: in vivo
# [21] = Clearance in Sprague-Dawley rat at 10 mg/kg, po via gavage after 48 hrs by LC-MS/MS analysis; assay type: ADME, organism-based; conditions: in vivo
# [22] = Clearance in Sprague-Dawley rat at 5 mg/kg, iv measured after 48 hrs by LC-MS/MS analysis; assay type: ADME, organism-based; conditions: in vivo
# [23] = AUC (0 to infinity) in Sprague-Dawley rat at 5 mg/kg, iv measured after 48 hrs by LC-MS/MS analysis; assay type: ADME, organism-based; parameters: dose 5 mg/kg, route intravenous, time infinity; conditions: in vivo
# [24] = Cmax in Sprague-Dawley rat at 5 mg/kg, iv measured after 48 hrs by LC-MS/MS analysis; assay type: ADME, organism-based; parameters: dose 5 mg/kg, route intravenous; conditions: in vivo
# [25] = Half life in Sprague-Dawley rat at 5 mg/kg, iv measured after 48 hrs by LC-MS/MS analysis; assay type: ADME, organism-based; conditions: in vivo
# [26] = Cytotoxicity against human LO2 cells assessed as cell viability at 10 uM after 48 hrs by MTT assay; assay type: cell-based, L02; conditions: read-out: Activity
# Chain of Dipeptidyl peptidase 9 (Q86TI2 whole entry): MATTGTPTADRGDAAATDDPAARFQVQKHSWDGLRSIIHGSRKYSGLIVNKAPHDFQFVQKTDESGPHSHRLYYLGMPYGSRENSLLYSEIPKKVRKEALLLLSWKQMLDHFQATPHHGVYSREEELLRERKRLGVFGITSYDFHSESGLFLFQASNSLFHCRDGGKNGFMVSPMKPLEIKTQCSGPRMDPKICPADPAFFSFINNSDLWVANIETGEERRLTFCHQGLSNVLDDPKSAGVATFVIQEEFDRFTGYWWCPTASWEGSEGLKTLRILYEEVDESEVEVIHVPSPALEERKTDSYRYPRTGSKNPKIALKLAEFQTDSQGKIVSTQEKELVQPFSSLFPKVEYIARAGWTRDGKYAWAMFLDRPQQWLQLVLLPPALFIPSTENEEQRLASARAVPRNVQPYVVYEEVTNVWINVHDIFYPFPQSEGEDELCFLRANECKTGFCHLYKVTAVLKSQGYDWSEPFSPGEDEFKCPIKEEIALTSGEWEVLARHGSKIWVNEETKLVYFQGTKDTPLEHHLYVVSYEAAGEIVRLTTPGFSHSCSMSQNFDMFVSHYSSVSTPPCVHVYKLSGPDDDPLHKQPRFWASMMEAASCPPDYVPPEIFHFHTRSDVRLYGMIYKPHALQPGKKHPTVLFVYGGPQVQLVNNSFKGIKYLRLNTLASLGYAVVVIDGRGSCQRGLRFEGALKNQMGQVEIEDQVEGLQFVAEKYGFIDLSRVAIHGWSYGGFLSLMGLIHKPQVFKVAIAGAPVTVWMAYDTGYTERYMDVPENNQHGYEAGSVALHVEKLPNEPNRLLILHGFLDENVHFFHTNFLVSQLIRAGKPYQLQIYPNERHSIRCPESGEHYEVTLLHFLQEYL
# Chain of Dipeptidyl peptidase 8 (Q6V1X1 whole entry): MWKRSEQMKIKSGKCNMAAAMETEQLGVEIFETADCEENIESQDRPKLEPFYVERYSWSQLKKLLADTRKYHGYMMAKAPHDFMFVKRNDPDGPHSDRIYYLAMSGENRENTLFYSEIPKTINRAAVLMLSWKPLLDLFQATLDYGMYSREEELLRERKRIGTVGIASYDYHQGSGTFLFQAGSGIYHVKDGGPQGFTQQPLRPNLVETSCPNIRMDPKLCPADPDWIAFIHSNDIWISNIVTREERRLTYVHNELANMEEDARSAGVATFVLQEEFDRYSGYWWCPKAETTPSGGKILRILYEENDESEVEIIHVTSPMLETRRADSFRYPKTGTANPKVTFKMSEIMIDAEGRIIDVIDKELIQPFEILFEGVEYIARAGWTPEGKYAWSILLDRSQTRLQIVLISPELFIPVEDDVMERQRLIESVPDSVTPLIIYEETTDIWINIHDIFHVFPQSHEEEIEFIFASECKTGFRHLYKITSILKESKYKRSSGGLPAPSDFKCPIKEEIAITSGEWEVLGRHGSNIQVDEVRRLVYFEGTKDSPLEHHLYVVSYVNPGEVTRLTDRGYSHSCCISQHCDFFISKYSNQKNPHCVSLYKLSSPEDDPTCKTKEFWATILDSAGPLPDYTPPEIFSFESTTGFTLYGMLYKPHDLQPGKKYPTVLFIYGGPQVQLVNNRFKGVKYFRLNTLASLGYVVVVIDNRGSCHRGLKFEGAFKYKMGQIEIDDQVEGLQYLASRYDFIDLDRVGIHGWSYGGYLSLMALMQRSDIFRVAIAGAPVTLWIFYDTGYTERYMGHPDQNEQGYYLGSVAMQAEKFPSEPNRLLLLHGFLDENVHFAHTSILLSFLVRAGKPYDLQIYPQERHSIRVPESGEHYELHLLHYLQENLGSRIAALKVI
structure (smiles),measurement,setting,value
CC#CCn1c(N2CCC[C@@H](N)C2)nc2c1c(=O)n(Cc1cc(C#N)ccc1C(=O)O)c(=O)n2C,IC50,[1],> 100 µM
same,IC50,[2],> 100 µM
CC#CCn1c(N2CCC[C@@H](N)C2)nc2c1c(=O)n(Cc1ccc(F)cc1C(=O)O)c(=O)n2C,IC50,[1],> 100 µM
same,IC50,[2],> 100 µM
CC#CCn1c(N2CCC[C@@H](N)C2)nc2c1c(=O)n(Cc1ccc(Cl)cc1C(=O)OCc1oc(=O)oc1C)c(=O)n2C,"remaining at 2 h, 1 µM",[3],1.25%
same,"metabolised at 5 min, 1 µM",[4],50%
same,"remaining at 2 h, 1 µM",[5],12%
same,"metabolised at 2 h, 1 µM",[6],100%
same,"degraded at 2 h, 1 µM",[7],100%
CC#CCn1c(N2CCC[C@@H](N)C2)nc2c1c(=O)n(Cc1ccc(Cl)cc1C(=O)OCC)c(=O)n2C,Cmax,[8],508 ng/mL
same,CL,[9],0.35 L/h/kg
same,"viability at 48 h, 20 µM",[10],80%
same,"remaining at 2 h, 1 µM",[3],70.2%
same,inhibition in vivo at 10 mg/kg,[11],> 80%
same,AUC,[12],4.53625 µg·h/mL
same,Activity,[13],Active
same,half-life,[14],481 min
same,"remaining at 2 h, 1 µM",[5],99.5%
same,Tmax,[15],30 min
same,F,[16],15.6%
same,Cmax,[17],401.06 µg/L
same,AUC,[18],3.00117 µg·h/mL
same,Tmax,[19],30 min
same,t1/2,[20],6.97 h
same,IC50,[1],> 100 µM
same,IC50,[2],> 100 µM
same,CL,[21],0.23 L/h/kg
CC#CCn1c(N2CCC[C@@H](N)C2)nc2c1c(=O)n(Cc1cccc(F)c1C(=O)O)c(=O)n2C,IC50,[1],> 100 µM
same,IC50,[2],> 100 µM
CC#CCn1c(N2CCC[C@@H](N)C2)nc2c1c(=O)n(Cc1ccccc1C(=O)OC)c(=O)n2C,IC50,[1],> 100 µM
same,IC50,[2],> 100 µM
CC#CCn1c(N2CCC[C@@H](N)C2)nc2c1c(=O)n(Cc1c(OC)cccc1C(=O)O)c(=O)n2C,IC50,[1],> 100 µM
same,IC50,[2],> 100 µM
CC#CCn1c(N2CCC[C@@H](N)C2)nc2c1c(=O)n(Cc1cc(OC)ccc1C(=O)O)c(=O)n2C,clearance,[22],21.7 mL/min/kg
same,AUC(0-inf),[23],3930 ng·h/mL
same,Cmax,[24],12200 ng/mL
same,IC50,[1],> 100 µM
same,half-life,[25],15.6 min
same,IC50,[2],> 100 µM
COc1cccc2c1C(=O)c1c(O)c3c(c(O)c1C2=O)C[C@@](O)(C(=O)CO)C[C@@H]3O[C@H]1C[C@H](N)[C@H](O)[C@H](C)O1 [DOXORUBICIN],"viability at 48 h, 10 µM",[26],35%
CC#CCn1c(N2CCC[C@@H](N)C2)nc2c1c(=O)n(Cc1ccc(Br)cc1C(=O)OC)c(=O)n2C,"viability at 48 h, 20 µM",[10],70%
same,"remaining at 2 h, 1 µM",[3],54.2%
same,"remaining at 2 h, 1 µM",[5],99.4%
same,IC50,[1],> 100 µM
same,IC50,[2],> 100 µM
CC#CCn1c(N2CCC[C@@H](N)C2)nc2c1c(=O)n(Cc1c(Cl)cccc1C(=O)O)c(=O)n2C,IC50,[1],> 100 µM
same,IC50,[2],> 100 µM
